The source of these data is DBAASP.

Assay in all cases: ≥ marks a high value that may be exact or a test limit, other limits are often not marked, values filed in µg/mL are converted to µM
Assay [1] has as its system Listeria monocytogenes EGD.
The subject of assay [2] is Staphylococcus aureus ATCC 33591.
Assay [3] deals with Pseudomonas aeruginosa ATCC 27853.
Assay [4] deals with Pseudomonas aeruginosa ATCC 9027.
For assay [5], the system named is Staphylococcus aureus ATCC 25923.
In assay [6] the test system is Acinetobacter baumannii ATCC BAA-1605.
Assay [7] has as its system Escherichia coli ATCC 43827.
Assay [8] has as its system Escherichia coli ATCC 25922.
The subject of assay [9] is Candida albicans NCTC 1467.
Assay [10] deals with Staphylococcus aureus NCTC 10788.
Assay [11] deals with Enterococcus faecalis NCTC 12697.
For assay [12], the system named is Escherichia coli NCTC 10418.
Assay [13] relates to Staphylococcus aureus ATCC 12493.
In assay [14] the test system is Candida parapsilosis ATCC 20224.
Assay [15] concerns Candida albicans ATCC 2048.
Assay [16] relates to Candida glabrata ATCC 90525.
For the next assay, the system named is Candida krusei ATCC 6258.
In assay [17] the test system is Candida tropicalis ATCC 20240.
Assay [18] has as its system Staphylococcus aureus ATCC 43300.
In another assay the test system is Vibrio cholerae CUN 09.

Each structure is given as a SMILES string. Converted amounts (≈) assume the structure as drawn.

Regarding `CC[C@H](C)[C@H](NC(=O)[C@H](Cc1ccccc1)NC(=O)[C@H](CCCCN)NC(=O)[C@H](CC(N)=O)NC(=O)[C@H](CC(C)C)NC(=O)[C@H](CCC(N)=O)NC(=O)CN)C(=O)N[C@@H](CCCCN)C(=O)N[C@@H](CCCCN)C(=O)N[C@@H](C)C(=O)N[C@@H](CCC(N)=O)C(=O)N[C@@H](CCCN=C(N)N)C(=O)N[C@@H](CCCCN)C(=O)N[C@@H](Cc1ccccc1)C(=O)N[C@@H](Cc1cnc[nH]1)C(=O)N[C@@H](CCC(=O)O)C(=O)N[C@@H](CCCCN)C(=O)N[C@@H](Cc1ccccc1)C(=O)N[C@@H](C)C(=O)N[C@@H](CCCCN)C(N)=O` [GQLNKFIKKAQRKFHEKFAK], the MIC in [1] was at least 128 µM; in [2] it was at least 209 µM; in assay [3], 128 µM (≈ 313 µg/mL); in assay [4], 209 µM (≈ 512 µg/mL); in [5] it was 128 µM (≈ 313 µg/mL); in assay [6] it was at least 105 µM. Moreover, the MIC was at least 209 µM in assay [7] and 128 µM (≈ 313 µg/mL) in assay [8].
As to `CC[C@H](C)[C@H](NC(=O)CN)C(=O)N[C@@H](CCSC)C(=O)N[C@@H](CC(=O)O)C(=O)N[C@H](C(=O)N[C@H](C(=O)N[C@@H](CCCCN)C(=O)N[C@@H](CC(N)=O)C(=O)N[C@@H](C)C(=O)N[C@@H](C)C(=O)N[C@@H](CCCCN)C(=O)N[C@@H](CC(N)=O)C(=O)N[C@@H](CC(C)C)C(=O)N[C@@H](C)C(=O)NCC(=O)N[C@@H](CCC(N)=O)C(=O)N[C@@H](CC(C)C)C(=O)N[C@@H](CC(C)C)C(=O)N[C@@H](CC(=O)O)C(=O)N[C@@H](CCCCN)C(=O)N[C@@H](CC(C)C)C(=O)N[C@@H](CCCCN)C(=O)N[C@H]1CSSC[C@@H](C(=O)O)NC(=O)[C@H](C)NC(=O)[C@H]([C@@H](C)O)NC(=O)[C@H]([C@@H](C)CC)NC(=O)[C@H](CCCCN)NC1=O)C(C)C)[C@@H](C)O` [GIMDTVKNAAKNLAGQLLDKLKCKITAC], the MIC was over 512 µM in [3]; at least 256 µM in assay [9]; at least 32 µM in [10]; at least 128 µM in [11]; at least 32 µM in [12]; at least 256 µM in assay [13].
Take `CC[C@H](C)[C@H](NC(=O)[C@H](CO)NC(=O)[C@H](CC(C)C)NC(=O)[C@@H](NC(=O)[C@H](CCCN=C(N)N)NC(=O)[C@@H](N)CCC(=O)O)[C@@H](C)CC)C(=O)N[C@@H](CC(C)C)C(=O)N[C@@H](CCCN=C(N)N)C(=O)N[C@@H](Cc1cnc[nH]1)C(=O)N[C@@H](CCC(N)=O)C(=O)N[C@@H](CC(N)=O)C(=O)N[C@@H](CC(C)C)C(=O)N[C@@H](CC(C)C)C(=O)N[C@@H](CCCCN)C(=O)N[C@@H](CCC(=O)O)C(=O)O` [ERILSILRHQNLLKE]: the MIC in assay [14] is at least 130 µM; in assay [15], at least 130 µM; in assay [16] it was at least 110 µM; with Candida krusei ATCC 6258, at least 130 µM; in assay [17], at least 73 µM.
For the compound `CC(C)C[C@H](NC(=O)[C@H](CCCCN)NC(=O)CNC(=O)[C@H](CCCCN)NC(=O)[C@H](Cc1ccccc1)NC(=O)[C@H](CCCCN)NC(=O)[C@H](Cc1c[nH]c2ccccc12)NC(=O)[C@H](CCCN=C(N)N)NC(=O)[C@H](Cc1ccccc1)NC(=O)[C@H](CCCN=C(N)N)NC(=O)[C@H](CCCN=C(N)N)NC(=O)[C@H](Cc1ccc(O)cc1)NC(=O)[C@H](CCCCN)NC(=O)[C@H](CCCCN)NC(=O)[C@H](CS)NC(=O)CN)C(=O)N[C@@H](Cc1c[nH]c2ccccc12)C(=O)N[C@@H](CC(C)C)C(=O)N[C@@H](Cc1c[nH]c2ccccc12)C(=O)NCC(N)=O` [GCKKYRRFRWKFKGKLWLWG], the MIC in assay [18] came out at 6.05 µM (≈ 16 µg/mL); in the assay on Vibrio cholerae CUN 09, 12.1 µM (≈ 32 µg/mL).
